This data set can be described thus: Skin penetration of Compound (I) into the dermis and epidermis. In kind it is in vitro ADME. The conditions noted are these: human abdominal skin from elective surgery (500±50 μm). The method, then: Using skin from one donor (n=4-5 replicates per condition) and a receptor solution comprising phosphate/citrate buffer pH 5.6 with 0.01% Brij 98, a dose of 10 mg/cm^2 Compound (I) was applied in the form of one of three 2% Compound (I) gel formulations comprising one of crystalline Form (I), amorphous Compound (I), or crystalline Form (II). Samples were collected every 3 hours for 24 hours. Prior to separating the epidermis and dermis, the residual formulation was removed from the surface of the skin, and then the skin surface was tape stripped up to 5 times to remove residual formulation and the top of the skin surface layers (stratum corneum). The dermis and epidermis were separated by heating to 60° C. for 2 minutes, followed by manual separation using forceps. The extraction fluid used was 90:10 acetonitrile:water with 0.1% BHT. Epidermis and dermis samples were homogenized, then shaken at 130 RPM overnight, and transferred to lo-bind DW96 plates.

As for `CC(C)(C)C=C(C#N)C(=O)N1CCCC(n2nc(-c3ccc(Oc4ccccc4)cc3F)c3c(N)ncnc32)C1` (stereo not shown) [Compound (I), 2-(3-(4-amino-3-(2-fluoro-4-phenoxyphenyl)-1H-pyrazolo[3,4-d]pyrimidin-1-yl)piperidine-1-carbonyl)-4,4-dimethylpent-2-enenitrile], the “ability to penetrate skin into the dermis and epidermis” value is reported as “able to penetrate”.

These data come from patent US11583533B2, “Topical pharmaceutical compositions comprising 2-[3-[4-amino-3-(2-fluoro-4-phenoxy-phenyl)-1H-pyrazolo[3,4-d]pyrimidin-1-yl]piperidine-1-carbonyl]-4,4-dimethylpent-2-enenitrile” (Principia Biopharma Inc., priority 2020, dated 2023).
